# According to ChEMBL document CHEMBL1149383, “Discovery of a daunorubicin analogue that exhibits potent antitumor activity and overcomes P-gp-mediated drug resistance” (J Med Chem, 2006):
# Active and inactive are the calls of the source. No cut-off for these calls is given here.
# Assays:
# [1] = system: K562; test: Increase in the level of drug efflux in Dox-resistant K562 cells in presence of cyclosporine over its absence; assay type: functional, cell-based; conditions: Homo sapiens
# [2] = system: K562; test: Increase in the level of drug uptake in Dox-resistant K562 cells in presence of cyclosporine over its absence; assay type: functional, cell-based; conditions: Homo sapiens
# [3] = system: K562; test: Cytotoxicity against Dox-resistant K562 cells by MTS at 1 uM and in presence of cyclosporine; assay type: functional, Homo sapiens
# [4] = system: Mus musculus; test: Mortality in mice with Dox-resistant K562 xenografts in 20 days at 5-10 mg/kg, ip; assay type: functional
# [5] = system: K562; test: Drug resistance index, ratio of IC50 in Dox-resistant K562 cells over Dox-sensitive cells; assay type: functional, Homo sapiens
# [6] = system: K562; test: Cytotoxicity against Dox-resistant K562 cells by MTS at 1 uM and in absence of cyclosporine; assay type: functional, Homo sapiens
# [7] = system: K562; test: Cytotoxicity against Dox-resistant K562 cells by MTS; assay type: functional, cell-based; conditions: Homo sapiens
# [8] = system: Mus musculus; test: Survival in mice with Dox-resistant K562 xenografts after 50 days at 5-10 mg/kg, ip; assay type: functional
# [9] = system: KB 3-1; test: Cytotoxicity against drug resistant KB-V cells; assay type: functional, cell-based; conditions: Homo sapiens
# [10] = system: K562; test: Increase in cytotoxicity against Dox-resistant K562 cells in presence of Cyclosporine over its absence; assay type: functional, cell-based; conditions: Homo sapiens
# [11] = system: KB 3-1; test: Cytotoxicity against human epidermoid carcinoma KB-3-1 cells; assay type: functional, cell-based
Compound,Activity [1],Activity [2],Ratio IC50 [5],further results
COc1cccc2c1C(=O)c1c(O)c3c(c(O)c1C2=O)C[C@@](O)(C(C)=O)C[C@@H]3O[C@H]1C[C@H](n2cc(CCCO)nn2)[C@H](O)[C@H](C)O1,inactive,inactive,–,–
COc1cccc2c1C(=O)c1c(O)c3c(c(O)c1C2=O)C[C@@](O)(C(C)=O)C[C@@H]3O[C@H]1C[C@H](N)[C@H](O)[C@H](C)O1 [DAUNORUBICIN],Active,Active,333,Activity [3]: 70%; Activity [4]: 50%; Activity [6]: 30%; IC50 [7]: > 5000 nM
COc1cccc2c1C(=O)c1c(O)c3c(c(O)c1C2=O)C[C@@](O)(C(C)=O)C[C@@H]3O[C@H]1C[C@H](n2cc(CCO)nn2)[C@H](O)[C@H](C)O1,inactive,inactive,–,–
COc1cccc2c1C(=O)c1c(O)c3c(c(O)c1C2=O)C[C@@](O)(C(C)=O)C[C@@H]3O[C@H]1C[C@H](n2cc(CCCCO)nn2)[C@H](O)[C@H](C)O1,inactive,inactive,–,–
COc1cccc2c1C(=O)c1c(O)c3c(c(O)c1C2=O)C[C@@](O)(C(C)=O)C[C@@H]3O[C@H]1C[C@H](n2cc(CO)nn2)[C@H](O)[C@H](C)O1,inactive,inactive,–,–
COc1cccc2c1C(=O)c1c(O)c3c(c(O)c1C2=O)C[C@@](O)(C(C)=O)C[C@@H]3O[C@H]1C[C@H](N=[N+]=[N-])[C@H](O)[C@H](C)O1,inactive,inactive,13,Activity [8]: 100%; IC50 [9]: 300 nM; Activity [10]: inactive; IC50 [11]: 300 nM
